These results are taken from patent US10463658B2, “Method of inhibiting FLT3 kinase” (AROG Pharmaceuticals, LLC, priority 2013, dated 2019).

Experiment [1] addresses T1, FLT3 K663Q (Homo sapiens, UniProt P36888, K663Q).
T1 construct: host or cells: E. coli BL21-derived host (T7 phage) or HEK-293
T1 sequence (P36888 610-943 K663Q limits assumed): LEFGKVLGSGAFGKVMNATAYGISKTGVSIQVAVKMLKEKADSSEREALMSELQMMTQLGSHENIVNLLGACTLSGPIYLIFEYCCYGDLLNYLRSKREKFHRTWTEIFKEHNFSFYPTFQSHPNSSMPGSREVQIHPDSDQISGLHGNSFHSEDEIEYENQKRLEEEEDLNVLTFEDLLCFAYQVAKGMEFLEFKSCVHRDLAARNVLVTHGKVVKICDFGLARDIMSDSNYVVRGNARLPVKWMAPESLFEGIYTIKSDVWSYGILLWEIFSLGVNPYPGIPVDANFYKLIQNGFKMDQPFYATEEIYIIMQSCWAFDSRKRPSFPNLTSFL
Put plainly: KINOMEscan KdElect competitive binding assay, FLT3 K663Q. The conditions noted are these: tosylate salt; read-out: Binding Constant (Kd), FLT3 K663Q. The text has this:
(§1) Competitive binding assay.
(§2) The lysates were then centrifuged and filtered.

In experiment [2] the target is T2, FLT3 (ITD, F691I) (Homo sapiens, UniProt P36888).
T2 construct: fused on or other part: DNA tag / T7 phage display tag for qPCR detection
The experiment in a line: KINOMEscan KdElect competitive binding assay, dual mutant FLT3 (ITD, F691I). To be noted: tosylate salt; read-out: Kd, FLT3 (ITD, F691I) double mutant.
Description: as §1, §2

Experiment [3] addresses T3, wild type FLT3 (Homo sapiens, UniProt P36888).
T3 construct: purchased Millipore
T3 sequence (P36888 27-993): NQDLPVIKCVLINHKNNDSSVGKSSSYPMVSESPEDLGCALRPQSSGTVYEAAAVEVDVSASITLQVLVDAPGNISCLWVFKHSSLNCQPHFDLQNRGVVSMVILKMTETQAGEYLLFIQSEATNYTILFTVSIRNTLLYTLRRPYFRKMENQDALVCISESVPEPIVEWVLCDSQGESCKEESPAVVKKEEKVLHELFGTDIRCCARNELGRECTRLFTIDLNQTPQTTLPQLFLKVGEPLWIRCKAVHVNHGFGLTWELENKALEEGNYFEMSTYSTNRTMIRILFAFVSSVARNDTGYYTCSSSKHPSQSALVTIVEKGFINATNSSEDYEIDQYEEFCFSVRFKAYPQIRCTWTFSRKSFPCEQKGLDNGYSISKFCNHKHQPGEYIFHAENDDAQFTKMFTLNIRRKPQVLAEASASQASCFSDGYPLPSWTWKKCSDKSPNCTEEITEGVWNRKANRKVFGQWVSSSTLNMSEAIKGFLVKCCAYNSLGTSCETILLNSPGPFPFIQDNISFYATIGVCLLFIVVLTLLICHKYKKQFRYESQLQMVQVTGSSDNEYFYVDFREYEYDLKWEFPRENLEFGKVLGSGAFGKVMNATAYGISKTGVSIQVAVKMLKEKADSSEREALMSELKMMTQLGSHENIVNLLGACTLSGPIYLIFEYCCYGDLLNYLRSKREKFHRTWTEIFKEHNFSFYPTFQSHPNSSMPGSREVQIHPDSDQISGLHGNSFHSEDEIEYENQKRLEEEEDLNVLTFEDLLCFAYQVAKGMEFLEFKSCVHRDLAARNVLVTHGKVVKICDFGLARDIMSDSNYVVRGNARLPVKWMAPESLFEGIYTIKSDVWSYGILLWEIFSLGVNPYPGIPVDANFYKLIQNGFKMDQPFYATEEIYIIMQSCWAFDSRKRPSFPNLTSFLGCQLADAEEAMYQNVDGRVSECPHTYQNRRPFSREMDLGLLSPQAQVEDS
The experiment in a line: Direct enzyme phosphorylation assay (Millipore Kinase IC50 Profiler), wild type FLT3. It is filed as biochemical. The conditions noted are these: tosylate salt; n=2; read-out: IC50 against wild type FLT3. How it is done:
(§3) Direct enzyme phosphorylation assay. The Millipore Kinase IC50 Profiler assay was used to screen the present invention against a panel of normal FLT3 and mutated FLT3 kinases. For assays of both kinases, the FLT3 enzyme was incubated with 8 mM of 3-(N-morpholino)propanesulfonic acid (MOPS) at a pH of 7.0, 0.2 mM Ethylenediaminetetraacetic acid (EDTA), 50 uM, a synthetic Abl peptide substrate […] (SEQ ID NO: 1), 10 mM MgAcetate and [γ-^33P-ATP]. The reaction was initiated by the addition of MgATp mix. The reaction mixture was incubated for 40 minutes at room temperature and halted by the addition of 3% phosphoric acid solution. 10 uL of the reaction solution was spotted on P30 filtermat and washed three times in 75 mM phosphoric acid for 5 minutes and then once in methanol prior to drying and scintillation counting. The scintillation values for each replicate, including positive and negative controls, were analyzed using XLFit version 5.1 to determine the IC50 values for the present invention against normal and mutated FLT3.

For experiment [4], the target named is T4, FLT3 TKD mutation D835Y (Homo sapiens, UniProt P36888, D835Y).
T4 construct: purchased Millipore
T4 sequence (P36888 27-993 D835Y): T3 sequence (P36888 27-993) with D809Y
The experiment in a line: Direct enzyme phosphorylation assay (Millipore Kinase IC50 Profiler), FLT3 D835Y. To be noted: tosylate salt; n=2; read-out: IC50 against the FLT3 TKD mutation D835Y. It is filed as biochemical. The procedure:
as §3

A word on the Kd: it is the free concentration of one partner at which half of the binding sites on the other are occupied at equilibrium, for simple one-to-one binding. One may read the IC50 as the concentration that gives 50% inhibition.

Numbering of substitutions follows the chain as printed.

For `COCCOc1ccc2c(c1)ncn2-c1ccc2cccc(N3CCC(N)CC3)c2n1` [CP-673,451], the Kd in experiment [1] is 0.62 nM; in experiment [2], 0.18 nM. For the same compound, the IC50 in experiment [3] was found to be 4 nM; in experiment [4], 3 nM.
